From ChEMBL document CHEMBL6134779, “Design of Proteolytic-Resistant Antifungal Peptides by Utilizing Minimum d-Amino Acid Ratios” (J Med Chem, 2024)
In brackets after ≈: the same amount, converted by molar mass. Activity calls are given as the source filed them. The calls are words filed in the database; no cut-off is given here.

Experiments:
Cell membrane = assay: Induction of cytoplasmic membrane depolarization in Candida albicans CGMCC 2.2086 at 0.5 to 2X MIC measured up to 3600 secs by DISC3-5 dye based fluorescence assay; type: subcellular; details: time <= 3600.0 sec
Candida albicans [1] = assay: Antifungal activity against Fluconazole-resistant Candida albicans 58288 assessed as inhibition of fungal growth incubated for 48 hrs; type: functional
[2] = Stability of the compound in ZnCl2 assessed as change in secondary structure by CD spectra analysis; type: physicochemical
Candida albicans [3] = assay: Antifungal activity against Candida albicans CGMCC 2.2086 assessed as inhibition of fungal growth incubated for 48 hrs in presence of FeCl3; type: functional
[4] = Hemolytic activity in human red blood cells assessed as hemolysis rate at 512 uM incubated for 1 hr relative to control; type: toxicity, cell-based, Erythrocyte; details: read-out: Activity
[5] = Proteolytic stability of the compound assessed as chymotrypsin (unknown origin)-mediated drug degradation measured after 8 hrs by 16.5% tricine-SDS-PAGE analysis; type: ADME; details: human
Candida albicans [6] = assay: Antifungal activity against Candida albicans CGMCC 2.2086 assessed as inhibition of fungal growth incubated for 2 to 4 hrs in presence of 100% serum; type: functional, organism-based; details: time 2-4 hrs
[7] = Stability of the compound in KCl assessed as change in secondary structure by CD spectra analysis; type: physicochemical
[8] = Proteolytic stability of the compound assessed as chymotrypsin (unknown origin)-mediated drug degradation measured after 8 hrs by RP-HPLC analysis; type: ADME; details: human
[9] = Stability of the compound in NaCl assessed as change in secondary structure by CD spectra analysis; type: physicochemical
Candida albicans [10] = assay: Induction of Candida albicans CGMCC 2.2086 cell wall permeabilization at 16 uM by NPN probe based assay relative to control; type: functional
[11] = Stability of the compound in FeCl3 assessed as change in secondary structure by CD spectra analysis; type: physicochemical
[12] = Stability of the compound in MgCl2 assessed as change in secondary structure by CD spectra analysis; type: physicochemical
Candida albicans [13] = assay: Induction of morphological changes in Candida albicans CGMCC 2.2086 assessed as cell content leakage at 1X MIC measured after 60 mins by TEM analysis; type: functional, organism-based
Candida albicans [14] = assay: Induction of ROS generation in Candida albicans CGMCC 2.2086 measured after 60 mins by […] dye based fluorescence assay; type: functional, organism-based; details: dose 0.5-128 µM
Candida albicans [15] = assay: Antifungal activity against Candida albicans SP3902 assessed as inhibition of fungal growth incubated for 48 hrs; type: functional
Candida albicans [16] = assay: Antifungal activity against Candida albicans SP3931 assessed as inhibition of fungal growth incubated for 48 hrs; type: functional
Candida albicans [17] = assay: Resistance development in Candida albicans CGMCC 2.2086 measured after 30 passages by broth microdilution method; type: functional, organism-based
Candida albicans [18] = assay: Induction of morphological changes in Candida albicans CGMCC 2.2086 assessed as appearance of cell pits at 1X MIC measured after 60 mins by SEM analysis; type: functional, organism-based
Candida albicans [19] = assay: Antifungal activity against Candida albicans CGMCC 2.2086 assessed as inhibition of fungal growth incubated for 48 hrs in presence of KCl; type: functional
Candida albicans [20] = assay: Antifungal activity against Fluconazole-resistant Candida albicans 56214 assessed as inhibition of fungal growth incubated for 48 hrs; type: functional
Candida albicans [21] = assay: Antifungal activity against Candida albicans 56452 assessed as inhibition of fungal growth incubated for 48 hrs; type: functional
Candida albicans [22] = assay: Antifungal activity against Candida albicans 17546 assessed as inhibition of fungal growth incubated for 48 hrs; type: functional
Candida albicans [23] = assay: Antifungal activity against Candida albicans CGMCC 2.2086 infected in C57BL/6 mouse keratitis model assessed as increase in ocular transparency at 5 mg/ml administered as 10 uL eye drop every 5 mins for first 1 hr and every 30 mins for next 7 hrs; type: functional, organism-based; details: route ou, time 8.0 hrs
Candida albicans [24] = assay: Antifungal activity against Candida albicans SP3876 assessed as inhibition of fungal growth incubated for 48 hrs; type: functional
Candida albicans [25] = assay: Antifungal activity against Candida albicans CGMCC 2.2086 infected in C57BL/6 mouse keratitis model assessed as reduction in mycelia in the eyes at 5 mg/ml administered as 10 uL eye drop every 5 mins for first 1 hr and every 30 mins for next 7 hrs by Schiff staining based assay; type: functional, organism-based; details: route ou, time 8.0 hrs
Candida albicans [26] = assay: Antifungal activity against Candida albicans CGMCC 2.2086 assessed as inhibition of fungal growth incubated for 48 hrs in presence of ZnCl2; type: functional
Candida albicans [27] = assay: Antifungal activity against Candida albicans CGMCC 2.2086 assessed as inhibition of fungal growth incubated for 48 hrs in presence of NaCl; type: functional
Candida albicans [28] = assay: Antifungal activity against Candida albicans CGMCC 2.2086 assessed as inhibition of fungal growth incubated for 48 hrs in presence of NH4Cl; type: functional
Candida albicans [29] = assay: Antifungal activity against Candida albicans CGMCC 2.2086 assessed as inhibition of fungal growth incubated for 2 hrs in presence of protease K; type: functional, organism-based
Candida albicans [30] = assay: Induction of morphological changes in Candida albicans CGMCC 2.2086 assessed as appearance of cell holes at 1X MIC measured after 60 mins by SEM analysis; type: functional, organism-based
Candida albicans [31] = assay: Antifungal activity against Candida albicans CGMCC 2.2086 assessed as inhibition of fungal growth incubated for 48 hrs in presence of MgCl2; type: functional
Candida parapsilosis = assay: Antifungal activity against Candida parapsilosis CGMCC 2.3989 assessed as inhibition of fungal growth incubated for 48 hrs; type: functional; details: Lodderomyces parapsilosis
Candida albicans [32] = assay: Antifungal activity against Candida albicans CGMCC 2.2086 infected in C57BL/6 mouse keratitis model assessed as reduction in clinical scores at 5 mg/ml administered as 10 uL eye drop every 5 mins for first 1 hr and every 30 mins for next 7 hrs; type: functional, organism-based; details: route ou, time 8.0 hrs
Candida albicans [33] = assay: Fungicidal activity against Candida albicans CGMCC 2.2086 measured up to 120 mins by time-kill assay; type: functional, organism-based
HEK293 = assay: Cytotoxicity against HEK293 cells assessed as cell death at 64 uM measured after 8 hrs by calcein-AM and propidium iodide Live/Dead dye staining assay; type: toxicity, cell-based; details: human, hek293, 8 h
Candida albicans [34] = assay: Ratio of MIC95 for antifungal activity against Candida albicans CGMCC 2.2086 in presence of MgCl2 to MIC95 for MIC95 for antifungal activity against Candida albicans CGMCC 2.2086; type: functional
Candida albicans [35] = assay: Induction of Candida albicans CGMCC 2.2086 cell wall permeabilization by NPN probe based assay; type: functional, organism-based; details: dose 1-128 µM
[36] = Hemolytic activity in human red blood cells assessed as hemolysis incubated for 1 hr; type: toxicity, cell-based, Erythrocyte
[37] = Proteolytic stability of the compound assessed as trypsin (unknown origin)-mediated drug degradation measured after 8 hrs by 16.5% tricine-SDS-PAGE analysis; type: ADME; details: human
[38] = Cytotoxicity against porcine IPEC-J2 cells assessed as reduction in cell viability at 128 uM incubated for 4 hrs by MTT assay; type: toxicity, cell-based, Sus scrofa; details: pig, ipec-j2, 4 h
Candida albicans [39] = assay: Antifungal activity against Candida albicans SP3903 assessed as inhibition of fungal growth incubated for 48 hrs; type: functional
Candida albicans [40] = assay: Antifungal activity against Candida albicans CGMCC 2.2086 assessed as inhibition of fungal growth incubated for 48 hrs in presence of CaCl2; type: functional

Compound: CC[C@H](C)[C@H](N)C(=O)N[C@H](C(=O)N[C@H](CCCNC(=N)N)C(=O)N[C@@H](CCCNC(=N)N)C(=O)N[C@@H](Cc1c[nH]cn1)C(=O)N[C@H](C(=O)N[C@H](C(=O)N[C@H](C(=O)N[C@H](C(=O)N[C@H](CCCNC(=N)N)C(=O)N[C@@H](CCCNC(=N)N)C(=O)N[C@@H](Cc1c[nH]cn1)C(=O)N[C@H](C(=O)N[C@H](C(=O)N[C@H](C(=O)N[C@H](C(=O)N[C@H](CCCNC(=N)N)C(=O)N[C@@H](CCCNC(=N)N)C(=O)N[C@@H](Cc1c[nH]cn1)C(=O)N[C@H](C(=O)N[C@H](C(N)=O)[C@@H](C)CC)[C@@H](C)CC)[C@@H](C)CC)[C@@H](C)CC)[C@@H](C)CC)[C@@H](C)CC)[C@@H](C)CC)[C@@H](C)CC)[C@@H](C)CC)[C@@H](C)CC)[C@@H](C)CC
- Activity (Cell membrane): Active
- MIC95 (Candida albicans [1]): 2 µM (≈ 5.45 µg/mL)
- Stability [2]: Stable
- MIC95 (Candida albicans [3]): 8 µM
- hemolysis at 1 h, 512 µM [4]: 40.8%
- Stability [5]: Stable
- growth inhibition (GI) (Candida albicans [6]): Active; No Alterations In The Antimicrobial Activity Was Observed In Presence Of Serum
- Stability [7]: Stable
- Stability [8]: Stable
- Stability [9]: Unstable
- Activity (Candida albicans [10]): >100%
- Stability [11]: Stable
- Stability [12]: Stable
- Activity (Candida albicans [13]): Active
- Activity (Candida albicans [14]): Dose-dependent-effect
- MIC95 (Candida albicans [15]): 2 µM (≈ 5.45 µg/mL)
- MIC95 (Candida albicans [16]): 2 µM (≈ 5.45 µg/mL)
- Activity (Candida albicans [17]): inactive
- Activity (Candida albicans [18]): Active
- MIC95 (Candida albicans [19]): 4 µM
- MIC95 (Candida albicans [20]): 4 µM (≈ 10.9 µg/mL)
- MIC95 (Candida albicans [21]): 2 µM (≈ 5.45 µg/mL)
- MIC95 (Candida albicans [22]): 4 µM (≈ 10.9 µg/mL)
- Activity (Candida albicans [23]): Active
- MIC95 (Candida albicans [24]): 2 µM (≈ 5.45 µg/mL)
- Activity (Candida albicans [25]): Active; Mycelia In The Eyes Was Either Absent Or Minimal
- MIC95 (Candida albicans [26]): 4 µM
- MIC95 (Candida albicans [27]): 16 µM
- MIC95 (Candida albicans [28]): 2 µM
- Activity (Candida albicans [29]): Active
- Activity (Candida albicans [30]): Active
- MIC95 (Candida albicans [31]): 4 µM
- MIC95 (Candida parapsilosis): 4 µM (≈ 10.9 µg/mL)
- Activity (Candida albicans [32]): Active
- Activity (Candida albicans [33]): Dose-dependent-effect
- Activity (HEK293): Toxic
- Ratio (Candida albicans [34]): 4
- Activity (Candida albicans [35]): Dose-dependent-effect
- HC50 at 1 h [36]: > 512 µM
- Stability [37]: Stable
- Activity [38]: Toxic
- MIC95 (Candida albicans [39]): 2 µM (≈ 5.45 µg/mL)
- MIC95 (Candida albicans [40]): 8 µM
